Experimental data reported in patent US5747235A, “Silver halide light sensitive emulsion layer having enhanced photographic sensitivity” (Eastman Kodak Company, priority 1996, dated 1998).

Legend:
Format in all cases: physicochemical
[1] = oxidation potential E1 by cyclic voltammetry; details: Table A; 80%/20% acetonitrile/water, 0.1M lithium perchlorate, 25° C.
Description: Oxidation potentials are well known and can be found, for example, in "Encyclopedia of Electrochemistry of the Elements", Organic Section, Volumes XI-XV, A. Bard and H. Lund (Editors) Marcel Dekker Inc., NY. (1984). E1 can be measured by the technique of cyclic voltammetry. In this technique, the electron donating compound is dissolved in a solution of 80%/20% by volume acetonitrile to water containing 0.1M lithium perchlorate. Oxygen is removed from the solution by passing nitrogen gas through the solution for 10 minutes prior to measurement. A glassy carbon disk is used for the working electrode, a platinum wire is used for the counter electrode, and a saturated calomel electrode (SCE) is used for the reference electrode. Measurement is conducted at 25° C. using a potential sweep rate of 0.1 V/sec. The oxidation potential vs. SCE is taken as the peak potential of the cyclic voltammetric wave.

[2] = fragmentation rate constant kfr by laser flash photolysis; details: Table B; CH3CN/H2O (4:1)
Excerpt: The kinetics of the bond cleavage or fragmentation reaction can be measured by conventional laser flash photolysis. […] The specific experimental apparatus we used to measure fragmentation rate constants and radical oxidation potentials is described in detail below.
(b) Fragmentation Rate Constant Determination
These absorptions were used to determine the kinetics of the fragmentation reactions of the radical cations of the X-Y. Excitation of 9,10-dicyanoanthracene (DCA) in the presence of biphenyl and the X-Y donor, as described above, results in the formation of the DCA^.cndot.- and the X-Y^.cndot.+. By using a concentration of X-Y of ca. 10^-2 M, the X-Y^.cndot.+ can be formed within ca. 20 ns of the laser pulse. […] The monitoring wavelengths used were somewhat different for the different donors, but were mostly around 470-530 nm. […] Alternatively, when the decay rate of the X-Y^.cndot.+ was less than 10^6 s^-1, the solutions were purged with oxygen.
The experiments measuring the fragmentation rate constants were performed in acetonitrile with the addition of 20% water, so that all of the salts could be easily solubilized. Most experiments were performed at room temperature. […] When this happened, the fragmentation rate constants were measured as a function of temperature, and the rate constant at room temperature determined by extrapolation.

[3] = oxidation potential E2 of radical X by laser flash photolysis; details: Table C; by parent XY compound; < = more negative than
Excerpt: In this technique, the compound X-Y is oxidized by an electron transfer reaction initiated by a short laser pulse. The oxidized form of X-Y then undergoes the bond cleavage reaction to give the radical X^.cndot.. X^.cndot. is then allowed to interact with various electron acceptor compounds of known reduction potential. […] The experimental details are set forth more fully below. The oxidation potentials (E2) for radicals X^.cndot. for typical compounds useful in accordance with our invention are given in Table C. Where only limits on potentials could be determined, the following notation is used: <-0.90 V should be read as "more negative than -0.90 V" and >-0.40 V should be read as "less negative than -0.40 V".
(a) Oxidation Potential of Radical X.cndot.
The laser flash photolysis measurements were performed using a nanosecond pulsed excimer (Questek model 2620, 308 nm, ca. 20 ns, ca. 100 mJ) pumped dye laser (Lambda Physik model FL 3002). The laser dye was DPS (commercially available from Exciton Co.) in p-dioxane (410 nm, ca. 20 ns, ca. 10 mJ). The analyzing light source was a pulsed 150W xenon arc lamp (Osram XBO 150/W). The arc lamp power supply was a PRA model 302 and the pulser was a PRA model M-306. The pulser increased the light output by ca. 100 fold, for a time period of ca. 2-3 ms. The analyzing light was focussed through a small aperture (ca. 1.5 mm) in a cell holder designed to hold 1 cm^2 cuvettes. The laser and analyzing beams irradiated the cell from opposite directions and crossed at a narrow angle (ca. 15°). After leaving the cell, the analyzing light was collimated and focussed onto the slit (1 mm, 4 nm bandpass) of an ISA H-20 monochromator. The light was detected using 5 dynodes of a Hamamatsu model R446 photomultiplier. The output of the photomultiplier tube was terminated into 50 ohm, and captured using a Tektronix DSA-602 digital oscilloscope. The entire experiment is controlled from a personal computer.
The experiments were performed either in acetonitrile, or a mixture of 80% acetonitrile and 20% water. The first singlet excited state of a cyanoanthracene (A), which acted as the electron acceptor, was produced using the nanosecond laser pulse at 410 nm. […] Secondary electron transfer then occurred between B^.cndot.+ and the lower oxidation potential electron donor X-Y, to generate X-Y^.cndot.+ in high yield. For the investigations of the oxidation potentials of the radicals X^.cndot., typically the cyanoanthrancene concentration was ca. 2×10^-5 M to 10^-4 M the biphenyl concentration was ca. 0.1M. The concentration of the X-Y donor was ca. 10^-3 M. The rates of the electron transfer reactions are determined by the concentrations of the substrates. The concentrations used ensured that the A^.cndot.- and the X-Y^.cndot.+ were generated within 100 ns of the laser pulse. The radical ions could be observed directly by means of their visible absorption spectra. The kinetics of the photogenerated radical ions were monitored by observation of the changes in optical density at the appropriate wavelengths.
The reduction potential (Ered) of 9,10-dicyanoanthracene (DCA) is -0.91 V. In a typical experiment, DCA is excited and the initial photo-induced electron transfer from the biphenyl (B) to the DCA forms a DCA^.cndot.-, which is observed at its characteristic absorption maximum (λobs =705 nm), within ca. 20 ns of the laser pulse. Rapid secondary electron transfer occurs from X-Y to B^.cndot.+ to generate X-Y^.cndot.+, which fragments to give X^.cndot.. A growth in absorption is then observed at 705 nm with a time constant of ca. 1 microsecond, due to reduction of a second DCA by the X^.cndot.. The absorption signal with the microsecond growth time is equal to the size of the absorption signal formed within 20 ns.
If the oxidation potential of X^.cndot. is not sufficiently negative to reduce DCA, an estimate of its oxidation potential was obtained by using other cyanoanthracenes as acceptors. […]

SMILES	Oxidation Potential of X--Y, E1 [1]	kfr, Rate Constants for Decarboxylation of Radical Cations [2]	Oxidation Potentials of Radicals (X*), E2 [3]
CN(C)c1ccc(CC(=O)O)cc1 [Compound 1]	0.53 V vs SCE	~ 3.0 × 10^5 s^-1	> -0.5 V
CCN(CC)c1ccc(C(O)C(=O)O)cc1 (centres unmarked) [Compound 2]	0.50 V vs SCE	–	< -0.9 V
CN(C)c1ccc(C(O)C(=O)O)cc1 (centres unmarked) [Compound 3]	–	550000 s⁻¹	–
CCN(CC)c1ccc(C(C)(O)C(=O)O)cc1 (centres unmarked) [Compound 4]	0.49 V vs SCE	–	–
CN(C)c1ccc(C(C)(O)C(=O)O)cc1 (centres unmarked) [Compound 5]	0.51 V vs SCE	–	< -0.9 V
O=C(O)COc1ccc(N(CC(=O)O)CC(=O)O)cc1 [Compound 9]	0.38 V vs SCE	–	–
COc1ccc(N(CC(=O)O)CC(=O)O)cc1 [Compound 10]	0.38 V vs SCE	9300 s⁻¹	< -0.9 V
Cc1ccc(N(CC(=O)O)CC(=O)O)cc1 [Compound 11]	0.46 V vs SCE	1.6e+06 s⁻¹	~ -0.9 V
O=C(O)CN(CC(=O)O)c1ccc(Cl)cc1 [Compound 12]	0.58 V vs SCE	–	–
O=C(O)CN(CC(=O)O)c1ccccc1 [Compound 13]	0.54 V vs SCE	1.7e+07 s⁻¹	~ -0.85 V
CCC(C)c1ccc(N(CC(=O)O)C(C)C(=O)O)cc1 (centres unmarked) [Compound 16]	0.47 V vs SCE	–	~ -0.9 V
CC(C(=O)O)N(CC(=O)O)c1ccc(C=O)cc1 (centres unmarked) [Compound 17]	0.74 V vs SCE	–	–
CC(C(=O)O)N(CC(=O)O)c1ccc(S(=O)(=O)O)cc1 (centres unmarked) [Compound 18]	0.70 V vs SCE	–	–
CCN(CC)S(=O)(=O)c1ccc(N(CC(=O)O)C(C)C(=O)O)cc1 (centres unmarked) [Compound 19]	0.68 V vs SCE	–	–
COc1ccc(N(CC(=O)O)CC(=O)O)cc1OC [Compound 21]	0.36 V vs SCE	1000 s⁻¹	–
O=C(O)COc1ccccc1N(CC(=O)O)CC(=O)O [Compound 22]	0.65 V vs SCE	–	–
COc1ccc(NC(C)C(=O)O)cc1 (centres unmarked) [Compound 23]	0.37 V vs SCE	–	–
CC(Nc1ccccc1)C(=O)O (centres unmarked) [Compound 24]	0.52 V vs SCE	–	–
CC(Nc1ccc(C(=O)O)cc1)C(=O)O (centres unmarked) [Compound 25]	0.62 V vs SCE	–	–
CC(Nc1ccc(Cl)cc1)C(=O)O (centres unmarked) [Compound 26]	0.51 V vs SCE	–	–
CC(Nc1ccc(C(N)=O)cc1)C(=O)O (centres unmarked) [Compound 27]	0.62 V vs SCE	–	–
CCOC(=O)c1ccc(NC(C)C(=O)O)cc1 (centres unmarked) [Compound 28]	0.61 V vs SCE	–	–
O=C(O)CC(Nc1ccccc1)C(=O)O (centres unmarked) [Compound 30]	0.60 V vs SCE	–	–

SMILES	Oxidation Potential of X--Y, E1 [1]	kfr, Rate Constants for Decarboxylation of Radical Cations [2]	Oxidation Potentials of Radicals (X*), E2 [3]
O=C(O)CC(Nc1ccc(C(=O)O)cc1)C(=O)O (centres unmarked) [Compound 31]	0.61 V vs SCE	–	–
CC(Nc1cccc(C(N)=O)c1)C(=O)O (centres unmarked) [Compound 32]	0.58 V vs SCE	–	–
CC(C(=O)O)N(C)c1ccc(C(=O)O)cc1 (centres unmarked) [Compound 33]	0.54 V vs SCE	–	< -0.9 V
CCN(c1cccc(C(N)=O)c1)C(C)C(=O)O (centres unmarked) [Compound 34]	0.52 V vs SCE	–	–
CCCCN(c1ccc(C)cc1)C(C)C(=O)O (centres unmarked) [Compound 35]	0.34 V vs SCE	–	–
CCCCN(c1ccccc1)C(C)C(=O)O (centres unmarked) [Compound 37]	0.43 V vs SCE	–	–
CCCCN(c1ccc(C(=O)O)cc1)C(C)C(=O)O (centres unmarked) [Compound 38]	0.48 V vs SCE	–	–
CCCCN(c1ccc(Cl)cc1)C(C)C(=O)O (centres unmarked) [Compound 39]	0.40 V vs SCE	–	–
CCCCN(c1ccc(C)cc1)C(CC(=O)O)C(=O)O (centres unmarked) [Compound 40]	0.38 V vs SCE	1.3e+07 s⁻¹	–
CCCCN(c1ccccc1)C(CC(=O)O)C(=O)O (centres unmarked) [Compound 41]	0.48 V vs SCE	–	–
Cc1ccc(N(CCC(=O)O)C[Si](C)(C)C)cc1 [Compound 42]	0.30 V vs SCE	–	~ -0.9 V
Cn1cc(C(O)C(=O)O)c2ccccc21 (centres unmarked) [Compound 43]	0.61 V vs SCE	–	-0.89 V
CC(C(=O)O)c1cn(C)c2ccccc12 (centres unmarked) [Compound 45]	0.64 V vs SCE	–	-0.56 V
Cn1cc(CC(=O)O)c2ccccc21 [Compound 46]	0.68 V vs SCE	–	~ -0.34 V
CC1CC(C)(C)N(CC(=O)O)c2ccccc21 (centres unmarked) [Compound 47]	–	> 10^7 s^-1	~ -0.9 V
COc1cc(OC)c(C(O)C(=O)O)cc1OC (centres unmarked) [Compound 48]	0.70 V vs SCE	–	< -0.9 V
O=C(O)C(O)c1ccccc1 (centres unmarked) [Compound 49]	~ 1.2 V vs SCE	–	-0.75 V
COc1ccc(C(O)C(=O)O)cc1 (centres unmarked) [Compound 50]	~ 1.05 V vs SCE	–	< -0.9 V
COc1ccc(C(O)C(=O)O)cc1OC (centres unmarked) [Compound 51]	0.91 V vs SCE	–	< -0.9 V
CC(C(=O)O)N(c1ccccc1)c1ccccc1 (centres unmarked) [Compound 58]	0.49 V vs SCE	–	–
CC(C)(Nc1ccccc1)C(=O)O [Compound 59]	0.53 V vs SCE	–	–
Nc1nc(C(O)C(=O)O)cs1 (centres unmarked) [Compound 60]	0.80 V vs SCE	–	–
